“Also recorded” adds a separate entry of the source. Bridges are numbered along the chain shown (N, C = ends). Where no end group is shown, it is not given here.
How the values were obtained:
[1] = Relaxivity at 1.5T in water, 37° C.; format: physicochemical
Description: Relaxivity is an important parameter for an MR contrast agent. It reflects how the relaxation rate of the surrounding water proton changes as a function of concentration, and it is directly associated with the agent's contrast enhancing capability during imaging. The relaxivity of the 4 contrast agents was tested at 37° C. in water and compared to Gd(HP-DO3A), Gd-DOTA and ZD2-Gd(HP-DO3A) (FIG. 26). […] Compared to Gd(HP-DO3A), Gd-DOTA, the size increase of the targeted contrast agents due to the peptides and PEG spacer could result in an increase of τR,^[42, 43] thus leading to higher relaxivities.

[2] = In vivo transmetallation and urinary excretion; design: species or system mouse; conditions: 0.1 mmol-Gd/kg
Description: Balb/c mice (Charles River Laboratories, Wilmington, Mass., USA) were randomly divided into groups of ZD2-Gd(HP-DO3A) and ProHance (n=5) and placed in the metabolism cages, 48 hours prior to injection. […] Urine samples were collected at 12 h pre-injection, and then 8, 24, 48, and 72 h post-injection from the metabolic box. The collected urine samples were centrifuged at 4,000 rpm for 15 min. The concentration of Gd(III), Zn(II), Cu(H), and Ca(II) in the supernatant of the urine samples was determined by ICP-OES after appropriate dilutions.

[3] = biological target: EDB fragment (Homo sapiens, UniProt P02751); test: Peptide ELISA of HRP-conjugated peptides on coated EDB; format: binding; conditions: HRP conjugates
Description: A linear version of ZD2 (CTVRTSADA) SEQ ID NO: 42 was synthesized so that sulfhydryl group on cysteine could be used for conjugation with maleimide-activated […] (Sigma-Aldrich). Conjugation was carried out as instructed in the manual. The product of conjugation, ZD2-HRP, was used for peptide ELISA assay after coating a 96-well plate with purified EDB. 0.5% BSA in PBS was used to block non-specific binding for later steps. 0.39 μM to 50 μM of ZD2-HRP was incubated with coated EDB for an hour followed by extensive washing with TBST (0.1%). ABTS substrate was added subsequently and allowed to react for 30 min before the absorbance of solution in each well were measured at 415 nm. Non-coated wells added with ABTS were used as blank.
Cyclic ZD2 peptide (CTVRTSADC) (SEQ ID NO: 10) was synthesized using standard solid phase peptide chemistry and was characterized by MALDI-TOF mass spectrometry (FIG. 1C). The peptide was then labeled with a fluorescence chromophore cyanine 5 (Cy5) through a short PEG linker (NH2—(CH2CH2O)—CH2CH2COOH) to give a peptide fluorescence probe ZD2-Cy5. The peptide was also conjugated to peroxidase (ZD2-HRP) and the binding affinity of the peptide to EDB fragment was determined using peptide ELISA assay.
Similarly, CERAK-HRP is synthesized as a control.

[4] = test system: TGFβ induced 4T1 cells; test: Binding of Cy5 probes to TGFβ induced 4T1 cells in vitro; format: cell-based; conditions: cell culture
Description: As tumor cells produce EDB-FN to promote its migration, we further validated if Cy5 labeled l-ZD2 (l-ZD2-Cy5) can bind to TGFβ induced 4T1 cells in vitro. […] To explain this, we hypothesize that in this form of cell culture, no clot formation can take action to provide binding sites for CREKA-Cy5. To validate our hypothesis, we further produced a 3D culture system that mimics the “soil” of metastatic tumor. In the 3D culture system, 4T1 cells were cultured in a microenvironment containing TGFβ, collagen, and fibrin. […] In overall, these evidences point to the conclusion that the use of EDB-FN for targeting micrometastasis may be advantageous compared with Fibronectin-Fibrin complexes in that EDB-FN appears earlier than Fibronectin-Fibrin in the pre-metastatic niche.

[5] = test system: LNCaP prostate tumor xenografts; test: In vivo T1-weighted MRI at 7T, LNCaP tumors; design: species or system mouse; conditions: 0.1 mmol/kg i.v., up to 30 min, 7T
Description: (§1) All MRI experiments were performed on a horizontal 7T Bruker scanner (Bruker Biospin Co., Billerica, Mass.). Imaging experiments were performed when the tumor size reached 5-8 mm in diameter. ZD2-Gd(HP-DO3A) was administered intravenously at the dose of 0.1 mmol/kg after acquiring pre-contrast images. Post-contrast images were obtained at 10 min interval up to 30 min. The axial slices of mouse at the tumor location were acquired using T1-weighted spin echo sequence with the following parameters: field of view (FOV): 3 cm; slice thickness: 1.2 mm; interslice distance: 1.2 mm; TR: 500 ms, TE: 8.1 ms; flip angle: 90°; average: 2; matrix size: 128×128. Contrast-to-noise ratio (CNR) at each time point was calculated by subtraction of the average signal intensity in the tumor and muscle, divided by the standard deviation of image noise. ProHance® (gadoteridol) was used as a control in the imaging experiments.

[6] = test system: PC3 prostate tumor xenografts; test: In vivo T1-weighted MRI at 7T, PC3 tumors; design: species or system mouse
Description: as §1

[7] = test system: human prostate tumor sections; test: Histological staining of human prostate sections
Description: Human prostate sections were acquired from OriGene (Rockville, Md., USA). Antibodies used in this study include mouse monoclonal anti-Fibronectin antibody (BC-1, ab154210, Abcam, Cambridge, UK), Rhodamine-Red-X conjugated goat polyclonal anti-rabbit IgG (H+L) (Jackson Immuno Research Lab. West Grove, Pa., USA), and FITC conjugated goat polyclonal anti-mouse Fc (ab97264, Abcam). Frozen tissue section ([…]) imbedded in OCT was used for immunostaining and peptide staining. Paraffin embedded samples were de-paraffinized and processed with antigen retrieval using general methods. Sections were permeabilized and fixed with cold acetone followed by 0.5% BSA blocking for 1 hr at room temperature. Peptide staining was carried at the concentration of 5 uM. Slides were counter-stained with DAPI and mounted with coverslip using Prolong Gold regent (Invitrogen) before imaging. Stained tissue was imaged on an Olympus FV1000 confocal laser scanning microscope. GFP was observed using […] and the emission wavelength was read from 480 to 495 nm and represented as green. DAPI was observed using 405 nm laser and the emission wavelength was read from 450 to 470 nm and expressed as blue. Cy5.0 was observed using 635 nm laser and the emission wavelength was read from 655 to 755 nm and expressed as red.

[8] = test system: TGFβ1-induced PC3 cancer cells; test: In vitro cellular binding, confocal microscopy; format: cell-based, human
Description: PC3 cell line was purchased from American Type Culture Collection (ATCC, Manassas, Va., USA), and maintained in RPMI/10% FBS medium. The cells were transfected with lentivirus to express green fluorescent protein (GFP) at least 48 h prior to harvesting. To induce EMT, PC3 cells were cultured in the presence of TGFβ1 (5 ng/ml) for 5 days. For in vitro binding assay, nuclei of cells were stained with Hoechst 33342 (Life Technologies, Brooklyn, N.Y., USA) 24 h prior to adding 500 nM ZD2-Cy5. Cells were maintained in medium containing ZD2-Cy5 for 24 h and monitored with confocal microscopy. Intense shaking was avoided for live-cell binding study to retain secreted EDB-FN on the glass.

[9] = test system: PC3-GFP flank tumor xenografts
Description: NIH athymic male nude mice, age 4-5 weeks, were maintained at the Athymic Animal Core Facility at Case Western Reserve University according to the animal protocols approved by the Institutional Animal Care and Use Committee (IACUC). For whole-body fluorescent imaging study, a flank tumor model was constructed. Each mouse was subcutaneously implanted in both flanks with 2×10^6 PC3-GFP cells mixed with an equal volume of in a mixture of PBS (50 μL culture medium and 50 μL PBS). Two to three weeks after inoculation, tumors reached an average size of 0.5 cm in diameter. The mice were used for imaging with Maestro FLEX In vivo Imaging System (Cambridge Research & Instrumentation, Inc. Woburn, Mass., USA) to monitor the targeting effect of ZD2 from 0 to 24 hours. Mice were intravenously injected with ZD2-Cy5 or CERAK-Cy5 (0.3 μmol/kg body weight). After 5 h, the mice were sacrificed and the tumor and various organs were imaged with the Maestro FLEX In vivo Imaging System.

Sequence of EDB fragment (P02751 1271-1359 limits assumed): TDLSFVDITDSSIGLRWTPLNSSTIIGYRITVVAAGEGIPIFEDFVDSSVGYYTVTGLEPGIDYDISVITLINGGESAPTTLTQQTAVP

O=C([O-])CN1CCN(CC(=O)[O-])CCN(CC(=O)O)CCN(CC(=O)[O-])CC1.[Gd+3] [Gd-DOTA, reference compound]
r1 [1]: 2.9 mM⁻¹ s⁻¹

CNC(=O)CN(CCN(CCN(CC(=O)[O-])CC(=O)NC)CC(=O)[O-])CC(=O)[O-].[Gd+3] [Omniscan, reference compound]
urine concentration of endogenous metal ions post-injection vs pre-injection [2]: significant increase in Zn(II) concentration

CERAK-HRP: control peptide CERAK conjugated to HRP (also: conjugated to HRP) [reference compound]
binding to EDB protein [3]: no observable binding

CREKA-Cy5: Cy5 probe of CREKA peptide, targets fibronectin-fibrin complexes (also: Cy5 conjugate) [reference compound]
binding to induced 4T1 cells [4]: no binding

CREKA-Gd(HP-DO3A): fibrin-FN clot targeting contrast agent, CREKA (Cys-Arg-Glu-Lys-Ala) conjugated to Gd(HP-DO3A) (also: conjugated to Gd(HP-DO3A) (Gd complex)) [reference compound]
signal enhancement in LNCaP tumors [5]: significant contrast enhancement in the periphery | signal enhancement in PC3 tumors ([6]; 0.1 mmol/kg i.v., up to 30 min, 7T): significant contrast enhancement in the periphery | difference in signal enhancement between the PC3 and LNCaP tumors ([6]; mouse, in vivo): no significant difference

GVK-(Gd-DOTA): GVK peptide, PEG spacer, p-NCS-Bz-DOTA-GA, Gd complex (GVKSYNE; also: PEG spacer, p-NCS-Bz-DOTA-GA, Gd complex)
r1 [1]: 4.3 mM⁻¹ s⁻¹

IGK-(Gd-DOTA): IGK peptide, PEG spacer, p-NCS-Bz-DOTA-GA, Gd complex (IGKTNTL; also: PEG spacer, p-NCS-Bz-DOTA-GA, Gd complex)
r1 [1]: 4.6 mM⁻¹ s⁻¹

ZD2-(Gd-DOTA): ZD2 peptide, PEG spacer, p-NCS-Bz-DOTA-GA, Gd complex (TVRTSAD; also: PEG spacer, p-NCS-Bz-DOTA-GA, Gd complex; listed as Homo sapiens)
r1 [1]: 4.1 mM⁻¹ s⁻¹

ZD2-Cy5: cyclic ZD2 (CTVRTSADC) labeled with Cy5 through a short PEG linker (CTVRTSADC-OH; disulfide 1-9 (inferred); not fully specified (N-terminus))
staining of normal glands / BPH sections ([7]; 5 uM): unstained | tumor binding after blocking sections with BC-1 ([7]; competitive staining): inhibited | staining of human prostate tumor sections ([7]; high Gleason score (GS7, GS9), 5 uM): strong staining; also recorded: strong binding | binding to the periphery of PC3 cells ([8]; TGFβ1-induced (post-EMT) PC3 cells, vs untreated cells): substantially more binding; also recorded: strong binding | binding to PC3 cells ([8]; uninduced cells): non-binding | accumulation in tumor, whole-body fluorescence imaging ([9]; 1.5 h after intravenous injection): significantly high accumulation | tumor accumulation, ex vivo Cy5 signal of tumor and organs ([9]; 5 hours after injection): specific accumulation | tumor to normal (T/N) ratio of Cy5 signal ([9]; maintained for up to 24 hours, compared with CERAK-Cy5): Relatively high | accumulation in the liver or lung ([9]; mouse, in vivo): Little accumulation

Source: patent publication US11738099B2, “Molecular probes and methods of use” (CASE WESTERN RESERVE UNIVERSITY, priority 2014, dated 2023)
